# Measurements published in paper PMC12647645, “Structural interactions of BWC0977 with Klebsiella pneumoniae topoisomerase IV and biochemical basis of its broad-spectrum activity” (Communications Biology, 2025).
# Values joined by “and” are separate entries in the source; they are usually repeats but may differ in a detail not shown here. Equal entries are not always repeated.
# Key:
# Human topo IIα = Human topo IIα (Homo sapiens, UniProt P11388); experiment: Human topo IIα decatenation assay; assay type: biochemical
# Description: Human topo IIα (0.9 nM) and topo IIß (2.2 nM) decatenation assays were performed following the same protocol used for bacterial topoisomerase IV decatenation assays. The assay buffer was made of 50 mM Tris. HCl (pH 7.5), 125 mM NaCl, 10 mM MgCl2, 5 mM DTT, and 100 μg/mL albumin.
# [1] = molecular target: P. aeruginosa topoisomerase IV (Pseudomonas aeruginosa, UniProt Q9HUJ8+Q9HUK1); experiment: Topoisomerase IV decatenation assay, P. aeruginosa; assay type: biochemical; set-up: Topo IV decatenation inhibition response: unit not given here
# Description: Topoisomerase IV decatenation reactions were performed using 2.5 nM E. coli enzyme and 60 ng kinetoplast DNA (kDNA) in an assay buffer containing 50 mM HEPES-KOH (pH 7.6), 100 mM potassium glutamate, 10 mM magnesium acetate, 10 mM DTT, 1 mM ATP, and 50 μg/mL albumin. Assays with P. aeruginosa topoisomerase IV (3 nM) were conducted in a similar buffer but with 50 mM HEPES-KOH (pH 7.9), 100 mM potassium glutamate, 6 mM magnesium acetate, 6 mM DTT, 1 mM ATP, 2 mM spermidine, and 50 μg/mL albumin. For S. aureus topoisomerase IV assay, the reactions contained 4 nM enzyme in an assay buffer composed of 50 mM Tris-HCl (pH 7.5), 5 mM MgCl₂, 5 mM DTT, 1.5 mM ATP, 350 mM potassium glutamate, and 0.05 mg/mL albumin. The procedures followed were consistent with those used in the supercoiling assays. Decatenated minicircles were resolved on 0.8% agarose gels, while the kDNA substrate remained in the wells. Gels were stained with 0.8 μg/mL ethidium bromide solution for 10 min, followed by destaining. DNA bands were visualized using a gel documentation system, and compound inhibition analysis was carried out using the same procedures described for the supercoiling assays.
# S. aureus gyrase = S. aureus gyrase (Staphylococcus aureus, UniProt P0A0K8+P20831); experiment: biochemical
# [2] = molecular target: E. coli GyrA M120K mutant gyrase (Escherichia coli, UniProt P0AES4+P0AES6, M120K); experiment: biochemical; assay type: biochemical; conditions: for Gyrase supercoiling inhibition response: GyrA M120K gyrase
# E. coli topoisomerase IV = molecular target: T1, E. coli topoisomerase IV (Escherichia coli, UniProt P0AFI2+P20083); experiment: Topoisomerase IV cleavage-complex assay; assay type: biochemical
# T1 construct: purchased Inspiralis
# Description: Reactions were stopped by adding 3.8 μL of a stop solution containing 0.8 μL Proteinase K (20 mg/mL) and 3 μL SDS (2%), followed by incubation at 37 °C for 60 min. Afterward, 4 μL of STEB loading buffer was added, and samples were run on pre-stained 0.8% agarose gels containing 0.4 μg/mL ethidium bromide. […] The % nicked and linear DNA formed with varying compound concentrations was plotted for comparison.
# [3] = test system: E. coli MG1655 GyrA WT, ParC D79N; experiment: microbe, parasite or virus in culture; assay type: cell-based; conditions: Escherichia coli
# [4] = test system: E. coli MG1655 GyrA R121K, ParC WT; experiment: microbe, parasite or virus in culture; assay type: cell-based; conditions: Escherichia coli
# K. pneumoniae ATCC 13883 = experiment: MIC broth microdilution; assay type: cell-based; conditions: Klebsiella pneumoniae, ATCC13883
# S. aureus ATCC 29213 = experiment: MIC broth microdilution; assay type: cell-based; conditions: Staphylococcus aureus, ATCC29213
# E. faecalis ATCC 29212 = experiment: MIC broth microdilution; assay type: cell-based; conditions: Enterococcus faecalis, ATCC29212
# E. coli BAA 2471 = experiment: microbe, parasite or virus in culture; assay type: cell-based; conditions: Escherichia coli, BAA2471
# P. aeruginosa BAA 2797 = experiment: microbe, parasite or virus in culture; assay type: cell-based; conditions: Pseudomonas aeruginosa, BAA2797
# E. coli wild-type strain = experiment: MIC, wild-type strain; assay type: cell-based; conditions: Escherichia coli
# E. cloacae = conditions: ref 6 (Hameed P et al., 2024); cited from earlier work
# [5] = test system: multidrug-resistant (MDR) Gram-negative bacteria, Gram-positive bacteria, anaerobes, and biothreat pathogens; conditions: diverse global panel; cited from earlier work
compound,measurement,setting,value
Cn1c(=O)ccc2ccc(F)c(CCNC[C@H]3CN(c4cnc5c(n4)NC(=O)CO5)C(=O)O3)c21 [BWC0977],selectivity for bacterial enzymes over human topoisomerases IIα and IIβ,Human topo IIα,more than 5000 fold
same,IC50,Human topo IIα; read-out: IC50 Human topo IIα decatenation,113 ± 13 µM
same,IC50,[1],0.077 µM
same,Topo IV decatenation inhibition response,"[1]; P. aeruginosa topo IV, compound 0.0114 μM, source data Fig 2B, listed as 977, 0.0114 µM",7.06
same,inhibition at 0.0114 µM,"[1]; P. aeruginosa topo IV, compound 0.0114 μM, source data Fig 2B, read-out: Topo IV decatenation inhibition response",10.9%
same,Topo IV decatenation inhibition response,"[1]; P. aeruginosa topo IV, compound 0.0343 μM, source data Fig 2B, listed as 977, 0.0343 µM",24.14
same,inhibition at 0.0343 µM,"[1]; P. aeruginosa topo IV, compound 0.0343 μM, source data Fig 2B, read-out: Topo IV decatenation inhibition response",18.9%
same,Topo IV decatenation inhibition response,"[1]; P. aeruginosa topo IV, compound 0.1029 μM, source data Fig 2B, listed as 977, 0.1029 µM",63.17
same,inhibition at 0.1029 µM,"[1]; P. aeruginosa topo IV, compound 0.1029 μM, source data Fig 2B, read-out: Topo IV decatenation inhibition response",61.6%
same,Topo IV decatenation inhibition response,"[1]; P. aeruginosa topo IV, compound 0.3086 μM, source data Fig 2B, listed as 977, 0.3086 µM",85.90
same,inhibition at 0.3086 µM,"[1]; P. aeruginosa topo IV, compound 0.3086 μM, source data Fig 2B, read-out: Topo IV decatenation inhibition response",88.3%
same,Topo IV decatenation inhibition response,"[1]; P. aeruginosa topo IV, compound 0.9259 μM, source data Fig 2B, listed as 977, 0.9259 µM",91.28
same,inhibition at 0.9259 µM,"[1]; P. aeruginosa topo IV, compound 0.9259 μM, source data Fig 2B, read-out: Topo IV decatenation inhibition response",91.1%
same,Topo IV decatenation inhibition response,"[1]; P. aeruginosa topo IV, compound 2.7778 μM, source data Fig 2B, listed as 977, 2.7778 µM",91.48
same,inhibition at 2.7778 µM,"[1]; P. aeruginosa topo IV, compound 2.7778 μM, source data Fig 2B, read-out: Topo IV decatenation inhibition response",94.5%
same,Topo IV decatenation inhibition response,"[1]; P. aeruginosa topo IV, compound 8.3333 μM, source data Fig 2B, listed as 977, 8.3333 µM",92.85
same,inhibition at 8.3333 µM,"[1]; P. aeruginosa topo IV, compound 8.3333 μM, source data Fig 2B, read-out: Topo IV decatenation inhibition response",97.1%
same,Topo IV decatenation inhibition response,"[1]; P. aeruginosa topo IV, compound 25 μM, source data Fig 2B, listed as 977, 25 µM",94.54
same,inhibition at 25 µM,"[1]; P. aeruginosa topo IV, compound 25 μM, source data Fig 2B, read-out: Topo IV decatenation inhibition response",99.2%
same,Gyrase supercoiling inhibition response,"S. aureus gyrase; S. aureus gyrase, compound 0.0002 μM, source data Fig 2C, listed as 977, 0.0002 µM",1.69 and 1.99
same,inhibition at 0.0002 µM,"S. aureus gyrase; S. aureus gyrase, compound 0.0002 μM, source data Fig 2C, read-out: Gyrase supercoiling inhibition response",2.89%
same,Gyrase supercoiling inhibition response,"S. aureus gyrase; S. aureus gyrase, compound 0.001 μM, source data Fig 2C, listed as 977, 0.001 µM",21.39 and 19.98
same,inhibition at 0.001 µM,"S. aureus gyrase; S. aureus gyrase, compound 0.001 μM, source data Fig 2C, read-out: Gyrase supercoiling inhibition response",26.9%
same,Gyrase supercoiling inhibition response,"S. aureus gyrase; S. aureus gyrase, compound 0.004 μM, source data Fig 2C, listed as 977, 0.004 µM",39.52 and 42.6
same,inhibition at 0.004 µM,"S. aureus gyrase; S. aureus gyrase, compound 0.004 μM, source data Fig 2C, read-out: Gyrase supercoiling inhibition response",46.8%
same,Gyrase supercoiling inhibition response,"S. aureus gyrase; S. aureus gyrase, compound 0.012 μM, source data Fig 2C, listed as 977, 0.012 µM",60.4 and 63.65
same,inhibition at 0.012 µM,"S. aureus gyrase; S. aureus gyrase, compound 0.012 μM, source data Fig 2C, read-out: Gyrase supercoiling inhibition response",57.6%
same,Gyrase supercoiling inhibition response,"S. aureus gyrase; S. aureus gyrase, compound 0.037 μM, source data Fig 2C, listed as 977, 0.037 µM",62.46 and 64.07
same,inhibition at 0.037 µM,"S. aureus gyrase; S. aureus gyrase, compound 0.037 μM, source data Fig 2C, read-out: Gyrase supercoiling inhibition response",66.3%
same,Gyrase supercoiling inhibition response,"S. aureus gyrase; S. aureus gyrase, compound 0.111 μM, source data Fig 2C, listed as 977, 0.111 µM",73.28 and 76.49
same,inhibition at 0.111 µM,"S. aureus gyrase; S. aureus gyrase, compound 0.111 μM, source data Fig 2C, read-out: Gyrase supercoiling inhibition response",70.2%
same,Gyrase supercoiling inhibition response,"S. aureus gyrase; S. aureus gyrase, compound 0.333 μM, source data Fig 2C, listed as 977, 0.333 µM",87.57 and 81.68
same,inhibition at 0.333 µM,"S. aureus gyrase; S. aureus gyrase, compound 0.333 μM, source data Fig 2C, read-out: Gyrase supercoiling inhibition response",84%
same,Gyrase supercoiling inhibition response,"S. aureus gyrase; S. aureus gyrase, compound 1 μM, source data Fig 2C, listed as 977, 1 µM",89.66 and 78.1
same,inhibition at 1 µM,"S. aureus gyrase; S. aureus gyrase, compound 1 μM, source data Fig 2C, read-out: Gyrase supercoiling inhibition response",91.1%
same,Gyrase supercoiling inhibition response,"S. aureus gyrase; S. aureus gyrase, compound 3 μM, source data Fig 2C, listed as 977, 3 µM",98.25 and 99.54
same,inhibition at 3 µM,"S. aureus gyrase; S. aureus gyrase, compound 3 μM, source data Fig 2C, read-out: Gyrase supercoiling inhibition response",94.8%
same,IC50,S. aureus gyrase; Supplementary Fig 1G,0.009 µM
same,IC50,"[2]; Fig. 6, read-out: IC50 M120K gyrase supercoiling",116 µM
same,Gyrase supercoiling inhibition response,"[2]; compound 4.444 µM, source data Fig 6A/6B, 4.444 µM",22.36 and 14.93
same,Gyrase supercoiling inhibition response,"[2]; compound 13.333 µM, source data Fig 6A/6B, 13.333 µM",30.98 and 24.28
same,Gyrase supercoiling inhibition response,"[2]; compound 40 µM, source data Fig 6A/6B, 40 µM",42.55 and 34.32
same,Gyrase supercoiling inhibition response,"[2]; compound 120 µM, source data Fig 6A/6B, 120 µM",58.34 and 49.21
same,reduction in inhibition potency compared to wildtype gyrase,[2]; GyrA M120K vs WT,> 500 fold
same,inhibition at 4.444 µM,"[2]; read-out: Gyrase supercoiling inhibition response, GyrA M120K gyrase, compound 4.444 µM, source data Fig 6A/6B",20.2%
same,inhibition at 13.333 µM,"[2]; read-out: Gyrase supercoiling inhibition response, GyrA M120K gyrase, compound 13.333 µM, source data Fig 6A/6B",27.2%
same,inhibition at 40 µM,"[2]; read-out: Gyrase supercoiling inhibition response, GyrA M120K gyrase, compound 40 µM, source data Fig 6A/6B",34.7%
same,inhibition at 120 µM,"[2]; read-out: Gyrase supercoiling inhibition response, GyrA M120K gyrase, compound 120 µM, source data Fig 6A/6B",56.3%
same,type of DNA breaks induced,E. coli topoisomerase IV,single-strand DNA breaks
same,MIC,[3],0.03 µg/mL
same,MIC,[4],0.01 µg/mL
same,MIC,K. pneumoniae ATCC 13883,0.06 µg/mL
same,MIC,S. aureus ATCC 29213,0.007 µg/mL
same,MIC,E. faecalis ATCC 29212,0.03 µg/mL
same,MIC,E. coli BAA 2471,0.5 µg/mL
same,MIC,P. aeruginosa BAA 2797,0.25 µg/mL
same,MIC,E. coli wild-type strain,0.01 µg/mL
same,MIC90 against diverse global isolates,E. cloacae,2 µg/mL
same,minimum inhibitory concentration (MIC90) range,[5],0.03 to 2 µg/mL
